Measurements as given in patent US7560466B2, “Methods of treating or preventing autoimmune diseases with 2,4-pyrimidinediamine compounds” (Rigel Pharmaceuticals, Inc., priority 2003, dated 2009).
Like-named read-outs stand apart in the source and are kept apart here.

What was measured:
[1] = test system: cultured human mast cells (CHMC), IgE-induced degranulation; assay: CHMC low cell density IgE activation: tryptase assay; type: cell-based
How it was run: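 Cord-blood CD34+-derived mucosal mast cells (SCF/IL-6 medium), 1000–1500 cells/well, preincubated with compound 1 h at 37°C, then anti-IgE stimulated 30 min at 37°C.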

[2] = test system: cultured human mast cells (CHMC), ionomycin-induced degranulation; assay: CHMC low cell density ionomycin activation: tryptase assay; type: cell-based; conditions: read-out: LD Tryptase, CHMC, Iono, 3pt
[3] = CHMC low cell density, 3pt, read-out: LD Tryptase, CHMC, IgE, 3pt
[4] = CHMC low cell density, 8pt, read-out: LD Tryptase, CHMC, IgE, 8pt
[5] = CHMC low cell density, ionomycin activation, 3pt
[6] = low cell density CHMC, 3pt, read-out: LD Tryptase, CHMC, IgE, 3pt
[7] = low cell density CHMC, 8pt, read-out: LD Tryptase, CHMC, IgE, 8pt
[8] = low cell density CHMC, ionomycin activation, 3pt
[9] = low cell density CHMC, ionomycin activation (2 μM final), 3pt
[10] = low cell density CHMC, 3-point, read-out: LD Tryptase, CHMC, IgE, 3pt
[11] = low cell density CHMC, 8-point, read-out: LD Tryptase, CHMC, IgE, 8pt
[12] = low cell density CHMC, ionomycin activation, 3-point

IC50 [1, 3] [µM] | IC50 [2, 5] [µM] | IC50 [1, 6] [µM] | IC50 [1, 7] [µM] | Molecule | further results
< 10 | > 10 | – | – | CN1C(=O)C(C)(C)Oc2ccc(Nc3nc(Nc4cccc(-c5ncco5)c4)ncc3F)nc21 [Compound 1012, 5-Fluoro-N2-[3-(oxazol-2-yl)phenyl]-N4-[3-oxo-2,2,4-trimethyl-5-pyrid[1,4]oxazin-6-yl]-2,4-pyrimidinediamine] | IC50 [1, 4]: < 10 µM
– | – | < 10 | < 10 | COc1cc(C)c(Nc2ncc(F)c(Nc3ccc4c(c3)NC(C)(C)CO4)n2)cc1Cl [Compound 216, N2-(3-Chloro-4-methoxy-6-methylphenyl)-N4-(3,4-dihydro-3,3-dimethyl-2H,4H-benz[1,4]oxazin-6-yl)-5-fluoro-2,4-pyrimidinediamine] | IC50 [2, 8]: > 10 µM
– | – | – | – | CC1(C)Oc2ccc(Nc3nc(Nc4cccc(-c5ncco5)c4)ncc3F)nc2NC1=O [Compound 1028, N4-(2,2-Dimethyl-3-oxo-4H-5-pyrid[1,4]oxazin-6-yl)-5-fluoro-N2-[3-(oxazol-2-yl)phenyl]-2,4-pyrimidinediamine] | IC50 [1, 10]: < 10 µM; IC50 [1, 11]: < 10 µM; IC50 [2, 12]: > 10 µM
– | – | < 10 | < 10 | Fc1cnc(Nc2cccc(-c3cnco3)c2)nc1Nc1ccc2c(c1)NCCO2 [Compound 232, N4-(3,4-Dihydro-2H,4H-benz[1,4]oxazin-6-yl)-5-fluoro-N2-[3-(oxazol-5-yl)phenyl]-2,4-pyrimidinediamine] | IC50 [2, 8]: > 10 µM
> 10 | > 10 | – | – | N2-(Bis-2-hydroxyethyl)-N4-(3,4-ethylenedioxyphenyl)-5-fluoro-N4-methyl-2,4-pyrimidinediamine [Compound 492] | –
< 10 | > 10 | – | – | CCOc1c(C)cc(Nc2ncc(F)c(Nc3ccc4c(n3)NC(=O)C(C)(C)O4)n2)cc1Cl [Compound 1010, N2-(3-Chloro-4-ethoxy-5-methylphenyl)-N4-(2,2-dimethyl-3-oxo-4H-5-pyrid[1,4]oxazin-6-yl)-5-fluoro-2,4-pyrimidinediamine] | –
– | – | – | – | CN1C(=O)C(C)(C)Oc2ccc(Nc3nc(Nc4cccc(-c5cnco5)c4)ncc3F)nc21 [Compound 1017, 5-Fluoro-N2-[3-(oxazol-5-yl)phenyl]-N4-[3-oxo-2,2,4-trimethyl-5-pyrid[1,4]oxazin-6-yl]-2,4-pyrimidinediamine] | IC50 [1, 10]: < 10 µM; IC50 [1, 11]: < 10 µM; IC50 [2, 12]: > 10 µM
< 10 | > 10 | – | – | COC(=O)Cn1ccc2cc(Nc3ncc(F)c(Nc4ccc5c(c4)OCCO5)n3)ccc21 [Compound 647, N4-(3,4-Ethylenedioxyphenyl)-5-fluoro-N2-[1-(methoxycarbonylmethylene)indol-5-yl]-2,4-pyrimidinediamine] | IC50 [1, 4]: < 10 µM
– | – | < 10 | < 10 | CC1(C)COc2ccc(Nc3nc(Nc4cccc(-c5ncco5)c4)ncc3F)cc2N1 [Compound 218, N4-(3,4-Dihydro-3,3-dimethyl-2H,4H-benz[1,4]oxazin-6-yl)-5-fluoro-N2-[3-(oxazol-2-yl)phenyl]-2,4-pyrimidinediamine] | IC50 [2, 8]: > 10 µM
> 10 | > 10 | – | – | CN1C(=O)C(C)(C)Oc2ccc(Nc3nc(Cl)ncc3F)nc21 [Compound 1006, 2-Chloro-5-fluoro-N4-(3-oxo-2,2,4-trimethyl-5-pyrid[1,4]oxazin-6-yl)-4-pyrimidinea mine] | –

Molecule | IC50 [1, 3] [µM] | IC50 [2, 5] [µM] | IC50 [1, 6] [µM] | IC50 [1, 7] [µM] | further results
CC(C)(C)OC(=O)NCC(=O)NCc1ccc(Nc2ncc(F)c(Nc3ccc4c(c3)NC(=O)C(C)(C)O4)n2)cc1 [Compound 1307, N2-[4-[1-(tert-Butoxycarbonylamino)methylenecarbonylamino]methylphenyl]-N4-(2,2-dimethyl-3-oxo-4H-benz[1,4]oxazin-6-yl)-5-fluoro-2,4-pyrimidinediamine] | – | – | < 10 | < 10 | IC50 [2, 9]: < 10 µM
C[C@@H]1Oc2ccc(Nc3nc(Nc4ccc(CNC(=O)CNC(=O)OC(C)(C)C)cc4)ncc3F)cc2NC1=O [Compound 1308, (S)—N2-[4-[1-(tert-Butoxycarbonylamino)methylenecarbonylamino]methylphenyl]-5-fluoro-N4-(2-methyl-3-oxo-2H,4H-benz[1,4]oxazin-6-yl)-2,4-pyrimidinediamine] | – | – | < 10 | < 10 | IC50 [2, 9]: < 10 µM
